Laboratory results from US20140378395A1, “Peptides for the Treatment of Hearing” (13Therapeutics, Inc., priority 2011, published 2014).

Assays:
[1] = test system: TNF-α secretion from RAW264.7 cells; assay: Inhibition of CpG-ODN-induced TNF-α secretion from RAW264.7 cells (ELISA); assay type: cell-based, murine; details: for activity compared with P13 (inhibition of TNF-α after stimulation of RAW264.7 cells with CpG): SAR, versus P13; for Percent Inhibition of TNF-α secretion, CpG Stimulation / Inhibition of TNF-α secretion (percent inhibition) / Percent Inhibition of TNF-α secretion: RAW264.7, 4 hours; for Percent Inhibition of TNF-α secretion, CpG Stimulation: 1.25 ug/ml CpG-ODN; for Inhibition of TNF-α secretion (percent inhibition) / Percent Inhibition of TNF-α secretion: 1 μg/ml CpG-ODN
Experimental: RAW264.7 cells were plated at 1.5×10^5 cells/well-3×10^5 cells/well in 48-well plates. After 24 hours, the cells were incubated with peptides at various concentrations at room temperature in triplicate either before, simultaneous with, or after activation with various PAMPs for 18 hours. Cell-free supernatants were analyzed for cytokines by ELISA, in quadruplicate. RAW264.7 cells were stimulated with either CpG-ODN (1 μg/ml or 1.25 μg/ml), LPS (about 1 ng/ml), Poly (I:C) (about 10 μg/ml), flagellin (about 5 ng/ml), or zymosan (about 10 μg/ml). Dose response curves were done with each PAMP to determine optimal stimulation concentration. For CpG-ODN stimulation, cells were incubated for 4 hours at 37° C., supernatants collected, and TNF-α measured by ELISA. Any cytokine involved in inflammatory disease mediated toll receptor signaling can be measured using similar assays.
The effect of several peptides on TNF-α secretion from RAW264.7 cells in response to stimulation by CpG-ODN was studied. Each peptide was initially tested at 3 concentrations, 37 μM, 22.2 μM, and 11.1 μM. […] The peptides were then tested at 11.1 μM, 7.4 μM, and 3.7 μM (Table 3). […] Cell viability was examined for each peptide at the concentrations tested for TNF-α inhibition.
Inhibition of TNF-α secretion by various T-peptides was examined. RAW264.7 cells were plated at 3×10^5 cells/well in 48-well plates. After 24 h the cells were incubated with peptide at various concentrations at room temperature in triplicate for 15 minutes and then stimulated with 1.25 ug/ml CpG-ODN or 1 ng/ml LPS. Cells were then incubated for 4 hours at 37° C., supernatants collected, and TNF-α measured by ELISA. Percent inhibition was calculated by comparing TNF-α secretion from cells incubated with peptide to control cells with no peptide treatment. The inhibitive effects of peptides T3 (SEQ ID NO: 319), T11 (SEQ ID NO: 327), T21 (SEQ ID NO: 337), T36 (SEQ ID NO: 352), T37 (SEQ ID NO: 353), T51 (SEQ ID NO: 367), and T52 (SEQ ID NO: 368) were compared to inhibition by an analogue of P13 (SEQ ID NO: 369) having a sequence of nine arginine residues at the C-terminus (P13-R^9 (SEQ ID NO: 378)). (Table 4).

[2] = test system: TNF-α secretion from RAW264.7 cells; assay: as above; assay type: cell-based, murine; details: peptide 3.1 μM (Table 3), 1 μg/ml CpG-ODN, 4 hours

Sequence | activity compared with P13 (inhibition of TNF-α after stimulation of RAW264.7 cells with CpG) [1] | Percent Inhibition of TNF-α secretion, CpG Stimulation ([1]; peptide 7.1 μM) [%] | Percent Inhibition of TNF-α secretion, CpG Stimulation ([1]; peptide 11.1 μM) [%] | Percent Inhibition of TNF-α secretion, CpG Stimulation ([1]; peptide 22 μM) [%] | Inhibition of TNF-α secretion (percent inhibition) [2] [%] | Inhibition of TNF-α secretion (percent inhibition) ([1]; peptide 7 μM (Table 3)) [%] | Inhibition of TNF-α secretion (percent inhibition) ([1]; peptide 11 μM (Table 3)) [%] | Percent Inhibition of TNF-α secretion ([1]; peptide 11.1 μM) [%] | Percent Inhibition of TNF-α secretion ([1]; peptide 22.2 μM) [%] | Percent Inhibition of TNF-α secretion ([1]; peptide 37 μM) [%]
AIIKVYVYACIRRRRRRRRR [T52-R^9] | superior activity | 97.8 | 99.2 | 100 |  |  |  |  |  | 
AIVKLTVYACIRRRRRRRRR [T51-R^9] | superior activity | 94 | 98 | 99.7 |  |  |  |  |  | 
DIIKLTVYDCIRRRRRRRRR [T36-R^9] | superior activity | 50 | 70 | 82 |  |  |  |  |  | 
DIVKLYVYDCIRRRRRRRRR [T21-R^9] | superior activity | 69 | 90 | 98 |  |  |  |  |  | 
DIVKVTVYDCIRRRRRRRRR [T37-R^9] | superior activity | 46 | 87 | 93 |  |  |  |  |  | 
EMFTILEEYFMYRGLLGLRIKRRRRRRRRR (C-terminal nona-arginine (R9)) [74(S10)-R^9] |  |  |  |  | 35 | 80 | 92 | 91 | 100 | 100
EMFTILEEYFMYRGLLGLRIKYGRLFNEIRRRRRRRRR (C-terminal nona-arginine (R9)) [42(S1)-R^9] |  |  |  |  | 37 | 67 | 83 | 85 | 96 | 97
EMFTILEEYFMYRGLLGLRIKYGRLFNRRRRRRRRR (C-terminal nona-arginine (R9)) [68(S4)-R^9] |  |  |  |  | 69 | 83 | 95 | 95 | 100 | 100
EMFTILEEYFMYRGLLGLRIKYGRLFRRRRRRRRR (C-terminal nona-arginine (R9)) [69(S5)-R^9] |  |  |  |  | 66 | 94 | 93 | 93 | 100 | 100
EMFTILEEYFMYRGLLGLRIKYGRLRRRRRRRRR (C-terminal nona-arginine (R9)) [70(S6)-R^9] |  |  |  |  | 63 | 87 | 94 | 93 | 100 | 100
EMFTILEEYFMYRGLLGLRIKYGRRRRRRRRR (C-terminal nona-arginine (R9)) [72(S8)-R^9] |  |  |  |  | 43 | 80 | 93 | 92 | 100 | 100
EMFTILEEYFMYRGLLGLRIKYGRRRRRRRRRR (C-terminal nona-arginine (R9)) [71(S7)-R^9] |  |  |  |  | 21 | 29 | 38 | 56 | 82 | 91
EMFTILEEYFMYRGLLGLRIKYRRRRRRRRR (C-terminal nona-arginine (R9)) [73(S9)-R^9] |  |  |  |  | 3 | 76 | 85 | 84 | 100 | 100
EMFTILEEYFMYRGLLGLRIRRRRRRRRR (C-terminal nona-arginine (R9)) [75(S11)-R^9] |  |  |  |  | 31 | 84 | 93 | 92 | 97 | 98
EMFTILEEYFMYRGLLGLRRRRRRRRR (C-terminal nona-arginine (R9)) [77(S13)-R^9] |  |  |  |  | 18 | 77 | 81 | 84 | 89 | 93
EMFTILEEYFMYRGLLGLRRRRRRRRRR (C-terminal nona-arginine (R9)) [76(S12)-R^9] |  |  |  |  | 44 | 67 | 84 | 82 | 84 | 87
EMFTILEEYFMYRGLLRRRRRRRRR (C-terminal nona-arginine (R9)) [79(S14)-R^9] |  |  |  |  | 0 | 77 | 86 | 85 | 93 | 97
FTILEEYFMYRGLLGLRIRRRRRRRRR (C-terminal nona-arginine (R9)) [103(S19)-R^9] |  |  |  |  |  | 87 | 93 | 93 | 99 | 
ILEEYFMYRGLLGLRIRRRRRRRRR (C-terminal nona-arginine (R9)) [105(S21)-R^9] |  |  |  |  |  | 52 | 62 | 62 | 91 | 
LEEYFMYGLLGLRIRRRRRRRRR (C-terminal nona-arginine (R9)) [106(S22)-R^9] |  |  |  |  |  | 53 | 70 | 70 | 92 | 
MFTILEEYFMYRGLLGLRIRRRRRRRRR (C-terminal nona-arginine (R9)) [102(S18)-R^9] |  |  |  |  |  | 48 | 72 | 72 | 91 | 
TILEEYFMYRGLLGLRIRRRRRRRRR (C-terminal nona-arginine (R9)) [104(S20)-R^9] |  |  |  |  |  | 60 | 74 | 74 | 93 | 
